Where two headings read alike, the source gives them in different places.
Legend:
[1] = test system: A-549; assay: Inhibition of cells growth by colorimetric (SRB) assay, A-549; conditions: for GI50 / CC50: Homo sapiens, A549, 48 h
Excerpt: (§1) The finality of these assays is to interrupt the growth of a “in vitro” tumor cell culture by means a continued exhibition of the cells to the sample to be testing.
(§2) This form of the assay employs 96 well cell culture microplates of 9 mm diameter (Faircloth, 1988; Mosmann, 1983). Most of the cell lines are obtained from American Type Culture Collection (ATCC) derived from different human cancer types.
(§3) Cells are maintained in RPMI 1640 10% FBS, supplemented with 0.1 g/l penicillin and 0.1 g/l streptomycin sulphate and then incubated at 37° C., 5% CO2 and 98% humidity. For the experiments, cells were harvested from subconfluent cultures using trypsin and resuspended in fresh medium before plating.
(§4) Cells are seeded in 96 well microtiter plates, at 5×10^3 cells per well in aliquots of 195 μl medium, and they are allowed to attach to the plate surface by growing in drug free medium for 18 hours. Afterward, samples are added in aliquots of 5 μl in a ranging from 10 to 10^−8 μg/ml, dissolved in DMSO/EtOH/PBS (0.5:0.5:99). After 48 hours exposure, the antitumor effect are measured by the SRB methodology: cells are fixed by adding 50 μl of cold 50% (wt/vol) trichloroacetic acid (TCA) and incubating for 60 minutes at 4° C. Plates are washed with deionized water and dried. One hundred μl of SRB solution (0.4% wt/vol in 1% acetic acid) is added to each microtiter well and incubated for 10 minutes at room temperature. Unbound SRB is removed by washing with 1% acetic acid. Plates are air dried and bound stain is solubilized with Tris buffer. Optical densities are read on a automated spectrophotometric plate reader at a single wavelength of 490 nm.
(§5) The values for mean +/−SD of data from triplicate wells are calculated. Some parameters for cellular responses can be calculated: GI=growth inhibition, TGI=total growth inhibition (cytostatic effect) and LC=cell killing (cytotoxic effect).

[2] = test system: HT-29; assay: Inhibition of cells growth by colorimetric (SRB) assay, HT-29; conditions: for GI50 / CC50: Homo sapiens, HT-29, 48 h
Excerpt: as §1, §2, §3, §4, §5

[3] = read-out: GI50 A-549, SRB assay, 48 hours exposure
[4] = read-out: LC50 A-549, SRB assay, 48 hours exposure
[5] = read-out: GI50 HT-29, SRB assay, 48 hours exposure
[6] = read-out: LC50 HT-29, SRB assay, 48 hours exposure

GI50 [1, 3]	GI50 [2, 5]	GI50 ([1]; read-out: A-549 GI50, SRB assay, 48 hours exposure)	GI50 ([2]; read-out: HT-29 GI50, SRB assay, 48 hours exposure)	Structure (SMILES)	CC50 [1, 4]	TGI A-549 ([1]; SRB assay, 48 hours exposure)	CC50 [2, 6]	TGI HT-29 ([2]; SRB assay, 48 hours exposure)	CC50 ([1]; read-out: A-549 LC50, SRB assay, 48 hours exposure)	A-549 TGI ([1]; SRB assay, 48 hours exposure)	CC50 ([2]; read-out: HT-29 LC50, SRB assay, 48 hours exposure)	HT-29 TGI ([2]; SRB assay, 48 hours exposure)
5.81 µM	5.36 µM	–	–	CSc1nccc(-c2c3c(OCc4ccccc4)ccnc3n3c(SC)nccc23)n1 [Compound 52]	15.7 µM	9.56E−06	15.7 µM	9.20E−06	–	–	–	–
12.3 µM	16.2 µM	–	–	Nc1nccc(-c2c3c(OCc4ccccc4)ccnc3n3c(N)nccc23)n1 [Compound 96]	26.1 µM	2.61E−05	26.1 µM	2.61E−05	–	–	–	–
–	–	25.1 µM	25.1 µM	COc1ccc(COc2nccc(-c3c4cccnc4n4c(N)nccc34)n2)cc1 [Compound 79]	–	–	–	–	25.1 µM	2.51E−05	25.1 µM	2.51E−05
21.1 µM	21.1 µM	–	–	Nc1nccc2c(-c3ccnc(OCc4ccccc4)n3)c3c(OCc4ccccc4)ccnc3n12 [Compound 104]	21.1 µM	2.11E−05	21.1 µM	2.11E−05	–	–	–	–

The remaining lines, values behind:

Structure (SMILES)	GI50 [1, 3]	GI50 [2, 5]	GI50 ([1]; read-out: A-549 GI50, SRB assay, 48 hours exposure)	GI50 ([2]; read-out: HT-29 GI50, SRB assay, 48 hours exposure)	CC50 [1, 4]	TGI A-549 ([1]; SRB assay, 48 hours exposure)	CC50 [2, 6]	TGI HT-29 ([2]; SRB assay, 48 hours exposure)	CC50 ([1]; read-out: A-549 LC50, SRB assay, 48 hours exposure)	A-549 TGI ([1]; SRB assay, 48 hours exposure)	CC50 ([2]; read-out: HT-29 LC50, SRB assay, 48 hours exposure)	HT-29 TGI ([2]; SRB assay, 48 hours exposure)
c1ccc(CNc2nccc(-c3c4cccnc4n4c(NCc5ccccc5)nccc34)n2)cc1 [Compound 28]	109 µM	109 µM	–	–	109 µM	1.09E−04	109 µM	1.09E−04	–	–	–	–
CSc1nccc(-c2c3cccnc3n3c(N)nccc23)n1 [Compound 25]	0.649 µM	0.974 µM	–	–	≥ 162 µM	3.25E−07	≥ 162 µM	9.74E−07	–	–	–	–
CSc1nccc(-c2c3cccnc3n3c(SC)nccc23)n1 [Compound 9]	5.9 µM	9.16 µM	–	–	29.5 µM	1.18E−05	25.7 µM	2.57E−05	–	–	–	–
CSc1nccc(-c2c3cc4ccccc4nc3n3c(SC)nccc23)n1 [Compound 17a]	≥ 25.7 µM	≥ 25.7 µM	–	–	129 µM	7.71E−05	129 µM	7.71E−05	–	–	–	–
